# Literature values, collected in patent US20230345942A1, “CORONA VIRUS KILLING AGENT” (SANKEI CO., LTD., priority 2020, published 2023).
# How the values were obtained:
# Norovirus (alternative) = tested on: Norovirus (alternative); set-up: key: ◯ Effective; ∇ Low efficacy; ⊚ Effective even in the presence of organic matter
# [1] = as qualified in the cell (undiluted solution / at usage concentration)
# Influenza = tested on: Influenza; set-up: key: ◯ Effective; ∇ Low efficacy; ⊚ Effective even in the presence of organic matter
# Novel coronavirus = tested on: Novel coronavirus; set-up: key: ◯ Effective; ∇ Low efficacy; ⊚ Effective even in the presence of organic matter
SMILES,Antiviral activity: Norovirus (alternative) (Norovirus (alternative)),Safety [1],Antiviral activity: Influenza (Influenza),"Antibacterial/fungal activity (bacteria, fungi)",Antiviral activity: Novel coronavirus (Novel coronavirus),Concentration required for an inactivation effect on enveloped viruses (enveloped viruses)
"CCO [Disinfecting ethanol, Ethanol]",∇,Flammable,◯,Broad range,◯,
OCl [Sodium hypochlorite],◯,hazardous,◯,Broad range,◯,
CCO [alcohol],,,,,,≥ 70 % (v/v)
